Laboratory results: US12110288B2, “MASP-2 inhibitors and methods of use” (Omeros Corporation, priority 2019, dated 2024)
Counter-ions that a name gives are not always drawn.

The compounds below were run against T1, MASP-2 (CCP1-CCP2-SP) (Homo sapiens, UniProt O00187) (assay: Enzymatic Assay for MASP-2). Conditions: fluorogenic substrate based on C2 cleavage site, room temperature, 20 mM HEPES pH 7.4.
T1 construct: 15 μL of Enzyme MASP-2 (CCP1-CCP2-SP) in Assay Buffer
Assay type: biochemical
How it was run: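 Fluorogenic substrate modelled on the C2 cleavage site, run at room temperature in 20 mM HEPES pH 7.4, 140 mM NaCl, 0.1% Tween 20; compounds were added from DMSO serial dilutions before enzyme and substrate. Reactions ran 20 min and were stopped with 0.1 M acetic acid before fluorescence was read. % activity was normalised to DMSO-only and no-enzyme controls; IC50 was taken as Ki, with tight- or slow-binding inhibitors handled separately.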

T1 sequence (O00187 445-686 limits assumed): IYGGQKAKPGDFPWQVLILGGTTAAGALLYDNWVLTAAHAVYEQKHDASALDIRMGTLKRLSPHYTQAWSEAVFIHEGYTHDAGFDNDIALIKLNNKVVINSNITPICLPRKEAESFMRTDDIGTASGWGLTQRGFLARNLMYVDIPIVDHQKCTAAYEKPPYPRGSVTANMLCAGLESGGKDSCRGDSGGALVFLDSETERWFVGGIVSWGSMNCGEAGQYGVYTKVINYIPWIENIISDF
T1 sequence (O00187 298-444 partner limits assumed): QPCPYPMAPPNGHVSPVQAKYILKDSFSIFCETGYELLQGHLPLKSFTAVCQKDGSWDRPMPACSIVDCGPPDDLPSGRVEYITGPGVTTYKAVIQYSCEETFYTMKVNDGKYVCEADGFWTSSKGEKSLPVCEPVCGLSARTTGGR

| Ki [nM] | SMILES |
| --- | --- |
| < 500 | O=C(Cn1c(-c2ccccc2)cnc(NCc2cccc(C(F)(F)F)c2)c1=O)NCc1cc2cnccc2[nH]1 [Compound 152, N-((1H-Pyrrolo[3,2-c]pyridin-2-yl)methyl)-2-(2-oxo-6-phenyl-3-((3-(trifluoromethyl)benzyl)amino)pyrazin-1(2H)-yl)acetamide] |
| < 500 | COc1cccc(CNc2ncc(-c3ccccc3)n(CC(=O)NCc3cc4cnccc4[nH]3)c2=O)c1 [Compound 153, N-((1H-Pyrrolo[3,2-c]pyridin-2-yl)methyl)-2-(3-((3-methoxybenzyl)amino)-2-oxo-6-phenylpyrazin-1(2H)-yl)acetamide] |
| < 500 | O=C(Cn1c(-c2ccccc2)cnc(NCc2cc(F)cc(F)c2)c1=O)NCc1cc2cnccc2[nH]1 [Compound 154, N-((1H-Pyrrolo[3,2-c]pyridin-2-yl)methyl)-2-(3-((3,5-difluorobenzyl)amino)-2-oxo-6-phenylpyrazin-1(2H)-yl)acetamide] |
| < 500 | Cc1cccc(CNc2ncc(-c3ccccc3)n(CC(=O)NCc3cc4cnccc4[nH]3)c2=O)c1 [Compound 155, N-((1H-Pyrrolo[3,2-c]pyridin-2-yl)methyl)-2-(3-((3-methylbenzyl)amino)-2-oxo-6-phenylpyrazin-1(2H)-yl)acetamide] |
| < 500 | C[C@H](Nc1ncc(-c2ccccc2)n(CC(=O)NCc2cc3cnccc3[nH]2)c1=O)c1ccccc1 [Compound 156, (S)-N-((1H-Pyrrolo[3,2-c]pyridin-2-yl)methyl)-2-(2-oxo-6-phenyl-3-((1-phenylethyl)amino)pyrazin-1(2H)-yl)acetamide] |
| > 10000 | CC(C)Nc1cnc(N(CCc2ccccc2)CCc2ccccc2)c(=O)n1CC(=O)NCc1cc2cnccc2[nH]1 [Compound 159] |
| 2500 to 10000 | CC(C)Nc1cnc(NCCc2ccccc2)c(=O)n1CC(=O)NCc1cc2cnccc2[nH]1 [Compound 160] |
| < 500 | Cn1cc(NCCc2ccccc2)c(=O)n(CC(=O)NCc2cc3cnccc3[nH]2)c1=O [Compound 161, N-((1H-Pyrrolo[3,2-c]Pyridin-2-yl)Methyl)-2-(3-Methyl-2,6-Dioxo-5-(Phenethylamino)-3,6-Dihydropyrimidin-1(2H)-yl)Acetamide] |
| < 500 | COC(=O)[C@H](Cc1ccc(O)cc1)Nc1ncc(-c2ccccc2)n(CC(=O)NCc2cc3cnccc3[nH]2)c1=O [Compound 163, Methyl (4-(2-(((1H-pyrrolo[3,2-c]pyridin-2-yl)methyl)amino)-2-oxoethyl)-3-oxo-5-phenyl-3,4-dihydropyrazin-2-yl)-L-tyrosinate trifluoroacetate] |

| SMILES | Ki [nM] |
| --- | --- |
| CCCCOc1cnc(NCCc2ccccc2)c(=O)n1CC(=O)NCc1cc2cnccc2[nH]1 [Compound 162, N-((1H-Pyrrolo[3,2-c]Pyridin-2-yl)Methyl)-2-(6-Butoxy-2-Oxo-3-(Phenethylamino)Pyrazin-1(2H)-yl)Acetamide] | < 500 |
